From PMC9100884, “Semi-Synthesis of N-Aryl Amide Analogs of Piperine from Piper nigrum and Evaluation of Their Antitrypanosomal, Antimalarial, and Anti-SARS-CoV-2 Main Protease Activities” (Molecules, 2022) come the findings set out here.

The EC50 is the concentration giving half of the maximal effect. By IC50 is commonly meant the concentration that gives 50% inhibition.

Each structure is given as a SMILES string. Like-named read-outs stand apart in the source and are kept apart here.

One data set concerns Vero E6 cell lines. Kind of data set: Cytotoxicity against Vero E6 cells (CellTiter 96 AQueous One). In kind it is cell-based. Particulars: for EC50: Chlorocebus sabaeus, read-out: EC50 ± S.E.M. Vero E6. Here is the method:
The cytotoxicity of the active compound was tested with Vero E6 cell lines. Each cell line was seeded at 1 × 10^4 cells per well into 96-well plates in growth medium and incubated overnight. The compounds were prepared at the concentrations of 2–500 µM in DMSO and added to the cells at the DMSO final concentrations of 0.1%. Cells were incubated for 48 h before analyzing the cell viability using CellTiter 96® AQueous One Solution Cell Proliferation Assay kit (Promega, Madison, WI, USA) according to the manufacturer’s protocol. The plate was read at the A450 by VICTORTM X3 microplate reader (PerkinElmer, Waltham, MA, USA). The EC50 values of the cells were calculated from nonlinear regression analysis. The results were reported as means and standard error of mean (S.E.M.) from three biological independent experiments.

The test system of a further data set is 3D7 P. falciparum. As to the kind of experiment: In vitro antimalarial assay (SYBR Green I). Particulars: Plasmodium falciparum, read-out: IC50 ± S.E.M. Antimalarial against 3D7 P. falciparum. Format: cell-based.
Data set [1] relates to T. brucei rhodesiense (STB900). Kind of data set: In vitro antitrypanosomal assay (resazurin). Format: cell-based, Trypanosoma brucei rhodesiense. Particulars: for IC50: Trypanosoma brucei, RHODESIENSE, read-out: IC50 ± S.E.M. Antitrypanosomal against T. brucei rhodesiense. As to the method: T. brucei rhodesiense (STB900) was maintained continuously in MEM/EBSS medium (pH 7.3) supplemented with 3 g/L sodium bicarbonate, 4.5 g/L glucose, 25 mM HEPES, 0.05 mM bathocuproinedisulfonic disodium salt, 1.5 mM L-cysteine, 1 mM hypoxanthine, 0.16 mM thymidine, 1 mM sodium pyruvate, 0.2 mM 2-mercaptoethanol, 1% MEM non-essential amino acid, and 15% v/v heated ([…]) FBS in a 5% CO2 incubator [47]. To evaluate the antitrypanosomal activity, trypanosome cells were seeded at 2 × 10^4 cells/well in 175 µL culture media/well and incubated with 25 µL of varying concentrations of each test compound in a 96-well plate under the culture conditions. […] Following 72 h incubation, 20 μL of resazurin was added to each well. The reaction was further incubated at 37 °C under 5% CO2 for 3 h to allow for the irreversible reduction of resazurin (violet color) to resorufin (pink color) by viable trypanosome cells. Fluorescence signals were measured by a spectrofluorometer using a 530-nm excitation wavelength and a 585-nm emission wavelength. […] The result for each compound was normalized using the control media for the overall background subtraction (0%), and untreated T. brucei rhodesiense with 0.1% DMSO was used as the 100% control.

For another data set, the system named is Vero cells. As to the kind of experiment: Cytotoxicity against Vero cells (sulforhodamine B assay). Format: cell-based, African green monkey. The note with it: for EC50: Chlorocebus sabaeus, 72 h, read-out: EC50 ± S.E.M. Vero; for cytotoxicity against Vero cells (in words): at the concentration of 100 μM. As to the method: Cytotoxicity test of selected analogues was performed against the African green monkey kidney fibroblast (Vero cells) obtained from Bioassay laboratory, BIOTEC, NSTDA, Thailand. The cells of less than 20 passages were maintained continuously in a MEM/EBSS medium supplemented with 10% heated fetal bovine serum (GE Healthcare, PAA Laboratories GmbH, Pasching, Aurstria), 2.2 g/L sodium bicarbonate (Emsure, ACS, Reag. Ph Eur, Darmstadt, Germany), and 1% sodium pyruvate (Sigma). Cytotoxicity was determined by sulforhodamine B assay. Briefly, 1.9 × 10^4 Vero cells were incubated with each compound at final concentrations of 0.0001–100 µM at 37 °C under 5% CO2. After incubation for 72 h, the cells were fixed with 10% trichloroacetic acid (Sigma) at 4 °C for 45 min, washed gently with tap-water and air-dried at room temperature for overnight. Then, the fixed protein was stained with 0.057% w/v of sulforhodamine B (Sigma). The excess dye was washed repeatedly with 1% v/v of acetic acid. The plates were allowed to air-dry at room temperature for overnight. Finally, the protein-bound dye in each well was dissolved with 50 µL of 10× Tris-based solution. The optical density (OD) was measured by a microplate reader at wavelength 510 nm. The EC50 value of each compound was determined from the dose-response curve. Data were shown as mean and standard error of the mean (S.E.M.) of three biological independent experiments.
On the technique in general: In SRB staining, fixed cells bind dye roughly in proportion to their protein.

Setting [2] is: Vero C1008, cytotoxicity, Vero E6 cells, 48 h, 2–500 µM.
The mark [3] stands for this setting: cytotoxicity, Vero cells, sulforhodamine B, 0.0001–100 µM.

For the compound `O=C(O)/C=C/C=C/c1ccc2c(c1)OCO2` [Piperic acid (2), Piperic acid], the concentration giving a half-maximal response (EC50) was more than 500 µM with Vero E6 cell lines (Vero C1008, 48 h) and more than 100 µM with Vero cells (Vero). Besides, the “cytotoxicity against Vero E6 cell lines (in words)” value with Vero E6 cell lines (at the concentration of 500 μM) was “non-toxic”. In addition, the IC50 with 3D7 P. falciparum (3D7, 48 h) is 63.5 ± 2.43 µM; in data set [1] (72 h) it was more than 100 µM. In addition, the “activity against T. brucei rhodesiense (in words)” value in data set [1] (at 100 μM) was “inactive”. Besides, the “cytotoxicity against Vero cells (in words)” value with Vero cells is on record as “non-toxic”.
For `O=C(/C=C/C=C/c1ccc2c(c1)OCO2)Nc1ccccc1` [Compound 3, (2E,4E)-5-(benzo[d][1,3]dioxol-5-yl)-N-phenylpenta-2,4-dienamide], the EC50 with Vero E6 cell lines (setting [2]) was more than 500 µM; in the data set on Vero cells (setting [3]), more than 100 µM. Further, the 50% inhibitory concentration (IC50) with 3D7 P. falciparum (3D7 strain, 48 h, SYBR Green I) is 25.8 ± 1.56 µM; in data set [1] (72 h incubation, resazurin) it was 53.5 ± 1.77 µM.
With `O=C(/C=C/C=C/c1ccc2c(c1)OCO2)N1CCCCC1` [Piperine (1), Piperine], the values for the EC50 in the data set with Vero E6 cell lines (setting [2]) and with Vero cells (setting [3]) were 132 ± 2.91 µM and more than 100 µM, respectively. The half-inhibitory concentration (IC50) was determined as 61.2 ± 2.83 µM in the data set with 3D7 P. falciparum (3D7 strain, 48 h, SYBR Green I) and 56.7 ± 0.98 µM in data set [1] (72 h incubation, resazurin). Besides, the “cytotoxicity against Vero cells (in words)” value in the data set on Vero cells was “non-toxic”.
With `COc1ccc(OC)c(NC(=O)/C=C/C=C/c2ccc3c(c2)OCO3)c1` [Compound 5, (2E,4E)-5-(benzo[d][1,3]dioxol-5-yl)-N-(2,5-dimethoxyphenyl)penta-2,4-dienamide], the EC50 was more than 500 µM with Vero E6 cell lines (setting [2]) and more than 100 µM in the data set on Vero cells (setting [3]). Moreover, the IC50 turned out to be 24.6 ± 1.91 µM in the data set on 3D7 P. falciparum (3D7 strain, 48 h, SYBR Green I) and 15.5 ± 3.09 µM in data set [1] (72 h incubation, resazurin). The “cytotoxicity against Vero cells (in words)” value in the data set on Vero cells was “no cytotoxicity”.
Regarding `COc1ccc(NC(=O)/C=C/C=C/c2ccc3c(c2)OCO3)c(OC)c1` [Compound 4, (2E,4E)-5-(benzo[d][1,3]dioxol-5-yl)-N-(2,4-dimethoxyphenyl)penta-2,4-dienamide], the half-maximal effective concentration (EC50) with Vero E6 cell lines (setting [2]) is more than 500 µM; with Vero cells (setting [3]) it was more than 100 µM. Also, the half-inhibitory concentration (IC50) was 29.4 ± 3.54 µM in the data set with 3D7 P. falciparum (3D7 strain, 48 h, SYBR Green I) and 19.9 ± 2.28 µM in data set [1] (72 h incubation, resazurin).
Take `N=C(N)c1ccc(OCCCCCOc2ccc(C(=N)N)cc2)cc1` [Pentamidine, reference compound]: the half-inhibitory concentration (IC50) in data set [1] (72 h incubation, resazurin) is 0.016 ± 0.002 µM.
